Our source for the IC50 values is patent US20090082354A1, “PYRAZOLO[5, 1-C] [1,2,4] TRIAZINES, METHODS FOR PREPARATION AND USE THEREOF” (Wyeth, priority 2007, published 2009).

The structures appear in SMILES notation. Some results are limits rather than exact numbers.

The IC50 is the concentration that gives 50% inhibition.

In this assay the target is T1, Flag/GST-tagged recombinant human B-Raf (Homo sapiens, UniProt P15056).
T1 construct: Flag; GST; made in house; host or cells: Sf9 insect cells (B-Raf); E. coli (MEK1-GST)
As to the kind of experiment: B-Raf kinase assay (phosphorylation of GST-MEK1, DELFIA readout). The format is biochemical. Particulars: B-Raf 0.2 nM, non-active GST-MEK1 2.8 nM, 45 minutes at RT; compound 1 μM to 3 nM or 0.1 uM to 300 pm in half log dilutions. The procedure:
Testing For B-Raf Kinase Inhibitors
Compounds of Formula A were tested as B-Raf Kinase inhibitors that can inhibit growth of tumor cells which contain oncogenic forms of Receptor Tyrosine Kinases or K-Ras, or B-Raf kinase.
Reagents: Flag/GST-tagged recombinant human B-Raf produced in Sf9 insect cells, human non-active Mek-1-GST (recombinant protein produced in E. coli); and a phospho-MEK1 specific poly-clonal Ab from Cell Signaling Technology (Cat. #9121).
B-Raf1 Kinase Assay Procedure: B-Raf-1 is used to phosphorylate GST-MEK1. MEK1 phosphorylation is measured by a phospho-specific antibody (from Cell Signaling Technology, Cat. #9121) that detects phosphorylation of two serine residues at positions 217 and 221 on MEK1.
The following Kinase Assay Protocol was employed in accordance with the invention:
B-Raf Assay Stock Solutions:
1. Assay Dilution Buffer (ADB): 20 mM MOPS, pH 7.2, 25 mM B-glycerol phosphate, 5 mM EGTA, 1 mM sodium orthovanadate, 1 mM dithiothreitol, 0.01% Triton X-100. 2. Magnesium/ATP Cocktail: ADB solution (minus Triton X-100) plus 200 μM cold ATP and 40 mM magnesium chloride. 3. Active Kinase: Active B-Raf: used at 0.2 nM per assay point. 4. Non-active GST-MEK1: Use at 2.8 nM final concentration). 5. TBST-Tris (50 mM, pH 7.5), NaCl (150 mM), Tween-20 (0.05%)
7. Anti pMEK Ab (Upstate) 8. Anti-rabbit Ab/Europium conjugate (Wallac)
1. Add 25 μl of ADB containing B-Raf and Mek per assay (i.e. per well of a 96 well plate) 2. Add 25 μl of 0.2 mM ATP and 40 mM magnesium chloride in Magnesuium/ATP Cocktail. 3. Incubate for 45 minutes at RT with occasional shaking. 4. Transfer this mixture to an anti-GST Ab coated 96 well plate (Nunc Immunosorb plates coated o/n with a-GST. Plate freshly washed 3× with TBS-T before use. 5. Incubate o/n at […] in cold room. 6. Wash 3× with TBST, add Anti-Phospho MEK1 (1:1000, dilution depends upon lot) 7. Incubate for 60 minutes at RT in a shaking incubator 8. Wash 3× with TBST, add Anti-rabbit Ab/Europium conjugate (Wallac) (1:500, dilution depends upon lot) 9. Incubate for 60 minutes at RT on a platform shaker. 10. Wash plate 3× with TBS-T 11. Add 100 ul of Wallac Delfia Enhancement Solution and shake for 10 minutes. 12. Read plates in Wallac Victor model Plate Reader. 13. Collect data analyze in Excel for single point and IC50 determinations. Mallon R, et al (2001) Anal. Biochem. 294:48.
IC50 determinations were performed on compounds of Formula A from single point assays with >80% inhibition. Single point assay—% inhibition at 10 mg/mL (% inhibition=1—sample treated with compound of Formula A/untreated control sample). The % inhibition was determined for each compound concentration. IC50 determinations—Typically the B-Raf assay was run at compound concentrations from 1 μM to 3 nM or 0.1 uM to 300 pm in half log dilutions. Data was analyzed in Excel and transferred to Radis.

T1 sequence (P15056 whole entry): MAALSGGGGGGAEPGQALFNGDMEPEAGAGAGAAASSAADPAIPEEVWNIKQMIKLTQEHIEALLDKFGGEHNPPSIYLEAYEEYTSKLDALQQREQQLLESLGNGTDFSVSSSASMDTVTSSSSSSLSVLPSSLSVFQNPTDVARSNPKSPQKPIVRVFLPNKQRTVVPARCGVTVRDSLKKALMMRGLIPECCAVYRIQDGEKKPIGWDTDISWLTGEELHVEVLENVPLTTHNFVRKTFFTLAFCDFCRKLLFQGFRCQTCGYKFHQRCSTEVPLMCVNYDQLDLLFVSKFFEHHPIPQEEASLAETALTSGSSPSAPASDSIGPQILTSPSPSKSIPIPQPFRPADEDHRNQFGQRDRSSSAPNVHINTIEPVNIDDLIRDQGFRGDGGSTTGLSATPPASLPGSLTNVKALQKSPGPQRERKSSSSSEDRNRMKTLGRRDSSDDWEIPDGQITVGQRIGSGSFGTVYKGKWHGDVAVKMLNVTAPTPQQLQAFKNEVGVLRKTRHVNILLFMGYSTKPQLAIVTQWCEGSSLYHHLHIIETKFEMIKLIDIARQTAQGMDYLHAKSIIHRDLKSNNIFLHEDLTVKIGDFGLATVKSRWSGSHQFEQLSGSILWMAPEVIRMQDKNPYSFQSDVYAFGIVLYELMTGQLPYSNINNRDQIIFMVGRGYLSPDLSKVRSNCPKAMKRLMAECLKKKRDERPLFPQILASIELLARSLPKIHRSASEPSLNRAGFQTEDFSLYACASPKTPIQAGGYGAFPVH

Turning to `Oc1cccc(-c2c(-c3ccncc3)nn3c(C4CCCCC4)cnnc23)c1` [Example 2, 3-(4-cyclohexyl-7-pyridin-4-yl-pyrazolo[5,1-c][1,2,4]triazin-8-yl)phenol], the IC50 amounted to 18 nM.

Take `COc1cccc(-c2c(-c3ccncc3)nn3c(C)c(C(=O)N4CCN(C)CC4)nnc23)c1` [Example 3]: the IC50 was found to be 1000 nM.

On to `Oc1cccc(-c2c(-c3ccncc3)nn3c(-c4ccc(Br)nc4)cnnc23)c1` [Example 5, 3-[4-(6-Bromo-pyridin-3-yl)-7-pyridin-4-yl-pyrazolo[5,1-c][1,2,4]triazin-8-yl]-phenol], for which the IC50 was found to be 91 nM.

On to `CN1CCCN(c2ccc(-c3cnnc4c(-c5cccc(O)c5)c(-c5ccncc5)nn34)cn2)CC1` [Example 6, 3-{4-[6-(4-Methyl-[1,4]diazepan-1-yl)-pyridin-3-yl]-7-pyridin-4-yl-pyrazolo[5,1-c][1,2,4]triazin-8yl}-phenol], for which the IC50 stood at 2 nM.

Turning to `CN1CCN(c2ccc(-c3cnnc4c(-c5cccc(O)c5)c(-c5ccncc5)nn34)cn2)CC1` [Example 7, 3-{4-[6-(4-Methyl-piperazin-1-yl)-pyridin-3-yl]-7-pyridin-4-yl-pyrazolo[5,1-c][1,2,4]triazin-8-yl}-phenol], the IC50 was found to be 2 nM.

Regarding `Cc1c(S(=O)(=O)c2ccccc2)nnc2c(-c3cccc(O)c3)c(-c3ccncc3)nn12` [Example 9, 3-[4-Methyl-3-(phenylsulfonyl)-7-pyridin-4-ylpyrazolo[5,1-c][1,2,4]triazin-8-yl]phenol], the IC50 is 55 nM.

As for `CCOC(=O)c1nnc2c(-c3ccc(Cl)c(OC)c3)c(-c3ccncc3)nn2c1C1CC1` [Example 10, Ethyl 8-(4-chloro-3-methoxyphenyl)-4-cyclopropyl-7-pyridin-4-yl pyrazolo[5,1-c][1,2,4]triazine-3-carboxylate], the IC50 amounted to 329 nM.

Regarding `CN1CCCN(c2ccc(-c3cnnc4c(-c5ccc(Cl)c(O)c5)c(-c5ccncc5)nn34)cn2)CC1` [Example 14, 2-Chloro-5-{4-[6-(4-methyl-1,4-diazepan-1-yl)pyridin-3-yl]-7-pyridin-4-ylpyrazolo[5,1-c][1,2,4]triazin-8-yl}phenol], the IC50 was < 0.3 nM.

Regarding `CN1CCN(S(=O)(=O)c2cccc(-c3cnnc4c(-c5ccc(Cl)c(O)c5)c(-c5ccncc5)nn34)c2)CC1` [Example 15, 2-Chloro-5-(4-{3-[(4-methylpiperazin-1-yl)sulfonyl]phenyl}-7-pyridin-4-ylpyrazolo[5,1-c][1,2,4]triazin-8-yl)phenol], the IC50 was < 0.3 nM.

On to `CCOC(=O)N1C2CCC1CC(c1cnnc3c(-c4ccc(Cl)c(O)c4)c(-c4ccncc4)nn13)C2` (stereo not shown) [Example 18, Ethyl 3-[8-(4-chloro-3-hydroxyphenyl)-7-pyridin-4-ylpyrazolo[5,1-c][1,2,4]triazin-4-yl]-8-azabicyclo[3.2.1]octane-8-carboxylate], for which the IC50 is 0.3 nM.
